Measured values taken from US20240228543A1, “CYCLIC PEPTIDE INHIBITORS OF USP22” (THE JOHNS HOPKINS UNIVERSITY, priority 2021, published 2024).
pIC50: −log10 of the molar value. Positions of bridges follow the written chain, without caps; N, C: chain ends. Non-standard residues stand in square brackets, D forms with d. Residues, ends and D or L forms follow the SMILES beside them.

Experiments:
USP30 = molecular target: T1, USP30 (Homo sapiens, UniProt Q70CQ3); assay: End-point Ub-AMC cleavage by off-target DUB USP30; format: biochemical; details: 1 μM hD1, 200 nM USP30, 1 μM Ub-AMC
T1 sequence (Q70CQ3 1-517): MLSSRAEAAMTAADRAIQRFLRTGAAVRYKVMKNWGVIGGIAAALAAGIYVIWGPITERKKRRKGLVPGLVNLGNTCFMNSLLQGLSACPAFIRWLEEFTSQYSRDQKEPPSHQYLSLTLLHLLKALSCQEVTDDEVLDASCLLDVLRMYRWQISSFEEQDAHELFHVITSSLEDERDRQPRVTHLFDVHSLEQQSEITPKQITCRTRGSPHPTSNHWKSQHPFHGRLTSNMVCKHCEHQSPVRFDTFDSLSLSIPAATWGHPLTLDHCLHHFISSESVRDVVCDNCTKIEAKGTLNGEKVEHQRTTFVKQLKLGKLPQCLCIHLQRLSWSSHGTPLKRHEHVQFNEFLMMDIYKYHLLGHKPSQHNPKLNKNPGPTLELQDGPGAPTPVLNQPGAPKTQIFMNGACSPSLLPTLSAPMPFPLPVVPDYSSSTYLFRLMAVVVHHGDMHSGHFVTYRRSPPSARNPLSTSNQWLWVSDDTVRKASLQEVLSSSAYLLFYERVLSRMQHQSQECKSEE
Excerpt: USP7 and USP30 are USP DUBs and belong to the same structural family as USP22, while CYLD belongs to the structurally distinct ubiquitin C-terminal hydrolase (UCH) family of DUBs. […]

[1] = molecular target: USP22/ATXN7L3/ENY2/ATXN7 (hDUBm) (Homo sapiens, UniProt Q9UPT9); assay: biochemical
USP22/ATXN7L3/ENY2/ATXN7 (hDUBm), sequence (Q9UPT9 whole entry, one chain of several): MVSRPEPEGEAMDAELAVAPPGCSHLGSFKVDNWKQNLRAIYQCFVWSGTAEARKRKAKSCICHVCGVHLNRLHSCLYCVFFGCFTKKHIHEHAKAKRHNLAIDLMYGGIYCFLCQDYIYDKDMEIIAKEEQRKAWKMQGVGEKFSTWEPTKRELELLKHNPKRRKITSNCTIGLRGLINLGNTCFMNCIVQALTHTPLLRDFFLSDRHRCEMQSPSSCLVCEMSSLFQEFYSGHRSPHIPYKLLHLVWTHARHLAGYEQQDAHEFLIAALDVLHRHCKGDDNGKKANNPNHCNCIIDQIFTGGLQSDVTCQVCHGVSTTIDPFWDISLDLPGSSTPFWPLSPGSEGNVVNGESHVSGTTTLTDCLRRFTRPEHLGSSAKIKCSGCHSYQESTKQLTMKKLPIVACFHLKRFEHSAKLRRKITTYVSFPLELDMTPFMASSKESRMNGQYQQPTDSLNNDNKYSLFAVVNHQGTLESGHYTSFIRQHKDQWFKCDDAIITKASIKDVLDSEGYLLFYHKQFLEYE
USP22/ATXN7L3/ENY2/ATXN7 (hDUBm), sequence (O15265 3-151 partner limits assumed, one chain of several): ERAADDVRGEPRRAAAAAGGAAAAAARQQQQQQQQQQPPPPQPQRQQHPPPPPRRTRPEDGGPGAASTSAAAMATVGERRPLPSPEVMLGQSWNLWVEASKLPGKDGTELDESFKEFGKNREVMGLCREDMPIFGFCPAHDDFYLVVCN
Description: (§1) Cleavage rates of 5 μM Ub-AMC were assayed for 75 nM USP22/ATXN7L3/ENY2/ATXN7 (hDUBm), 100 nM USP27x/ATXN7L3/ENY2, or 1000 nM USP51/ATXN7L3/ENY2. Rates were normalized to the uninhibited reaction in each case to determine the fraction of apparent activity.
(§2) DUB specificity assays Ubiquitin-rhodamine(110)-glycine cleavage rates were measured for all DUBs available in the DUBprofiler™ panel with two independent replicates (44 in total; Ubiquigent). […] USP22 was not included in the panel, and is not represented in FIG. 12A. […] Initial cleavage rates of each complex were measured on a fixed concentration of 5 μM Ub-AMC.
(§3) Heterotrimeric complexes containing USP27x and USP51 were purified, respectively, in complex with ENY2 and ATXN7L3. The activity of these complexes on Ub-AMC was compared to that of the human DUBm, which contains USP22, ENY2, ATXN7L3, and a fourth subunit, ATXN7, that anchors the DUBm to the rest of the SAGA complex.

USP27x/ATXN7L3/ENY2 = molecular target: T2, USP27x/ATXN7L3/ENY2 (Homo sapiens, UniProt A6NNY8); assay: Inhibition of H2B DUB complexes, Ub-AMC cleavage: USP27x complex; format: biochemical; details: 100 nM complex, 5 μM Ub-AMC
T2 construct: made in house
T2 sequence (A6NNY8 1-438): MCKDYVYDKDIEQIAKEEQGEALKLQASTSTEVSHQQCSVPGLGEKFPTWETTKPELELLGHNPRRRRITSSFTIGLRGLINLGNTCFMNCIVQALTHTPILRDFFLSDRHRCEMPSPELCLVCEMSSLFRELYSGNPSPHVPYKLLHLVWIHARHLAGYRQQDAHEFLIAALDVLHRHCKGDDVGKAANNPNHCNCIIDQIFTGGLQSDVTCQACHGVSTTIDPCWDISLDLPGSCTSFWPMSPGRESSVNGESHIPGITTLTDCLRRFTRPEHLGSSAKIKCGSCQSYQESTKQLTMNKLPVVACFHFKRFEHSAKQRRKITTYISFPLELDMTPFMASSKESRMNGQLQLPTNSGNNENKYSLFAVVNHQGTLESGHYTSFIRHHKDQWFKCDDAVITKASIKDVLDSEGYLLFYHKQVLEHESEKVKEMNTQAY
T2 sequence (Q14CW9 1-347 partner): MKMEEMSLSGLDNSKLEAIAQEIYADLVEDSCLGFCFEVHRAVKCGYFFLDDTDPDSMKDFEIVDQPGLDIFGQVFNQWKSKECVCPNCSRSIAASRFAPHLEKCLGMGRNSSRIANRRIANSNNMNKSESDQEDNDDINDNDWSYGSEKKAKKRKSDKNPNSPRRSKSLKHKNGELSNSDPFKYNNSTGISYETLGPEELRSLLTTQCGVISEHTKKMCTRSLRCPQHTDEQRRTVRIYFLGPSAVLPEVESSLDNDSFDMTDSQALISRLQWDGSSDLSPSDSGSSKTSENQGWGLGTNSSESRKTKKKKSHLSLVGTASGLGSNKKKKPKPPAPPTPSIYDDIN
T2 sequence (Q9NPA8 1-101 partner): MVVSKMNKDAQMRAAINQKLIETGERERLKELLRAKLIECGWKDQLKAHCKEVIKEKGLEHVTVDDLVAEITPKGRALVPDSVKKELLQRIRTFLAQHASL
Description: as §1, §2, §3

USP27x = molecular target: T3, USP27x (Homo sapiens, UniProt A6NNY8); assay: DUBprofiler panel, USP27x alone; format: biochemical; details: 1 μM hD1, USP27x alone without other subunits
T3 construct: purchased Ubiquigent (DUBprofiler panel)
T3 sequence (A6NNY8 1-438): T2 sequence (A6NNY8 1-438)
Description: The human genome encodes about 80 active DUBs, 55 of which belong to the same USP structural family as USP22, thus presenting a challenge to the development of specific DUB inhibitors. […] The activity of each DUB was tested in the presence of a single concentration of inhibitor and compared with enzyme activity in the absence of compound. […] In this screen, however, USP27x alone was tested in the absence of other subunits.

CC[C@H](C)[C@@H]1NC(=O)[C@H](C)NC(=O)[C@@H](Cc2ccc(O)cc2)NC(=O)CSC[C@@H](C(N)=O)NC(=O)[C@H](CC(C)C)NC(=O)[C@H](CC(C)C)NC(=O)[C@H]([C@@H](C)O)NC(=O)[C@H]([C@@H](C)O)NC(=O)[C@H](CCCCN)NC(=O)CNC(=O)[C@H](CCCNC(=N)N)NC(=O)[C@H](Cc2ccc(O)cc2)NC(=O)[C@H](CO)NC1=O [hD1] ({CH2CO}-[dY]AISYRGKTTLLC-NH2; thioether N-13)
effect on USP30 activity (USP30): ~15%
pIC50 [1]: 7.00
pIC50 (USP27x/ATXN7L3/ENY2): 5.52
reduction of USP27x activity (USP27x): ~50%
